Where two headings read alike, the source gives them in different places.
Experiments:
AHR [1] = target: T1, AHR (Mus musculus, UniProt P30561); experiment: In vitro assay 3: antagonism in mouse cell line (AHR transactivation, firefly luciferase reporter, kynurenic acid prestimulated); type: cell-based
T1 sequence (P30561 1-848 P471L/N533S/M589L): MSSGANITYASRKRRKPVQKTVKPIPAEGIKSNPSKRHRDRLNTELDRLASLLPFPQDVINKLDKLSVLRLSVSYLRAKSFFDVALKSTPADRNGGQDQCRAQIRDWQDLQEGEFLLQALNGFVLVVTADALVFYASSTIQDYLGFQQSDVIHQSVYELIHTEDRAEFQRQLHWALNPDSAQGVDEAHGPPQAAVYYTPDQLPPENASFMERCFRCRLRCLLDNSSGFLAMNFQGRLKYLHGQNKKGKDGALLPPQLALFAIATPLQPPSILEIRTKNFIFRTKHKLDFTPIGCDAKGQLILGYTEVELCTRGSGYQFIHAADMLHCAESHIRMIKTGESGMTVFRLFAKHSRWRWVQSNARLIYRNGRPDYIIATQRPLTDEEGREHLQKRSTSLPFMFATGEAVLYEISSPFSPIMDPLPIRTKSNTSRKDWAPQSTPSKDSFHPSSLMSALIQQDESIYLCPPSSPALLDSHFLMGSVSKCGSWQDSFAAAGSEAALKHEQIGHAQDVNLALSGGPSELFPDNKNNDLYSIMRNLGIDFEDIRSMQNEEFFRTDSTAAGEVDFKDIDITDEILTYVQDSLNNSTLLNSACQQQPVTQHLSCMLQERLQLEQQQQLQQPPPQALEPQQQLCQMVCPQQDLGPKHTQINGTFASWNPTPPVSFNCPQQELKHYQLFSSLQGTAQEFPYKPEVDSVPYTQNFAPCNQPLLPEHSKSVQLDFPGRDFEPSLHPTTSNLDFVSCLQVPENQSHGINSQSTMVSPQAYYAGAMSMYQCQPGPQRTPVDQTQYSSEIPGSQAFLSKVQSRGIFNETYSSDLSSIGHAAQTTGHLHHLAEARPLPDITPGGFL
Outline: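 Kynurenic acid-prestimulated mouse reporter cells; stable AHR-inducible firefly luc construct with DRE sites in promoter. No-agonist wells = positive inhibition ctrl. Luminescence normalized to pos/neg ctrls; n>1 reported as mean or median.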

AHR [2] = target: T2, AHR (Homo sapiens, UniProt P35869); experiment: In vitro assay 1: antagonism in human cell line (AHR transactivation, firefly luciferase reporter, kynurenic acid prestimulated); type: cell-based; details: AHR Antagonism Human IC50 [M]
T2 construct: U87 MG glioblastoma cells (ATCC #HTB-14) endogenously expressing AHR; endogenous in cells; host or cells: U87 MG glioblastoma cells (ATCC #HTB-14)
T2 sequence (P35869 11-848): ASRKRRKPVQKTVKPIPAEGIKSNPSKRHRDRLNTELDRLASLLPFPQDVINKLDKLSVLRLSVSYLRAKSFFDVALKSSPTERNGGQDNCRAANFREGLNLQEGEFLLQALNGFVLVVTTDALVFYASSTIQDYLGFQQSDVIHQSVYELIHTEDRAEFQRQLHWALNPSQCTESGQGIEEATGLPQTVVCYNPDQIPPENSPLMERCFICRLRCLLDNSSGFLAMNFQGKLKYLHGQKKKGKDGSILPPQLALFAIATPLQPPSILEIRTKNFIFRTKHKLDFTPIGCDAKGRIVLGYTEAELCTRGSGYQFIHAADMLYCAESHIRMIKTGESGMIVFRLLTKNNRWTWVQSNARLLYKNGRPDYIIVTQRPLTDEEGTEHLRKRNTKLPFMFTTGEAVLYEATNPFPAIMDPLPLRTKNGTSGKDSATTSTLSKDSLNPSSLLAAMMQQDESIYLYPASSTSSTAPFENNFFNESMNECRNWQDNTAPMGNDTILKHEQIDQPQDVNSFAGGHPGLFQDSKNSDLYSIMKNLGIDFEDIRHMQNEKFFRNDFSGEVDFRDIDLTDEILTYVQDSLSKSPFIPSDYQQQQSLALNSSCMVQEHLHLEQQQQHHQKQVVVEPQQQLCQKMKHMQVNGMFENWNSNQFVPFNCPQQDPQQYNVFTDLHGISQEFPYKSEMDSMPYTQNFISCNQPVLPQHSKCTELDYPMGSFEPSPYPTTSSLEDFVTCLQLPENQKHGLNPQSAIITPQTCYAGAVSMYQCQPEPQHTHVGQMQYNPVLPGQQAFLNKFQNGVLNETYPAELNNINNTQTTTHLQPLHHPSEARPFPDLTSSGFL
Outline: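 Antagonism measured as loss of kynurenic acid-driven firefly luciferase from DRE reporter in stably transfected U87 MG cells; constitutive Renilla signal monitors cytotoxicity. Positive/negative control normalization, staurosporine 5 μM with 150 μM kynurenic acid as inhibition control; replicates given as mean or median.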

[3] = Hepa 1c1c7 cells, 200 μM kynurenic acid, 20 hours, firefly luciferase reporter, read-out: AHR Antagonism Mouse IC50
[4] = read-out: AHR Antagonism Mouse IC50, mouse Hepa 1c1c7 cells, 200 μM kynurenic acid, 20 hours
[5] = mouse Hepa 1c1c7 cells, 200 μM kynurenic acid, 20 hours, read-out: AHR Antagonism Mouse IC50

IC50 (AHR [1]; [3])	IC50 (AHR [2]; firefly luciferase reporter)	IC50 (AHR [2])	IC50 (AHR [1]; [5])	SMILES	IC50 (AHR [1]; [4])
4.79 nM	1.76e-09 M			O=C1NCCNC[C@H]1Nc1nc2c(C(F)(F)F)cccc2c2nc(-c3cnn(C4CC4)c3)nn12 [Example 963, (6R)-6-{[2-(1-cyclopropyl-1H-pyrazol-4-yl)-7-(trifluoromethyl)[1,2,4]triazolo[1,5-c]quinazolin-5-yl]amino}-1,4-diazepan-5-one]	
		4e-09 M	10.4 nM	O=C1NCCCC[C@H]1Nc1nc2ccccc2c2nc(-c3ccnc(F)c3)nn12 [Example 638, (3R)-3-{[2-(2-fluoropyridin-4-yl)[1,2,4]triazolo[1,5-c]quinazolin-5-yl]amino}azepan-2-one]	
		1.65e-08 M	98.6 nM	Cn1cc(-c2nc3c4c(Br)cccc4nc(N[C@@H]4CCCCNC4=O)n3n2)cn1 [Example 165, (3R)-3-{[10-bromo-2-(1-methyl-1H-pyrazol-4-yl)[1,2,4]triazolo[1,5-c]quinazolin-5-yl]amino}azepan-2-one]	
		1.86e-09 M	1.73 nM	N#Cc1cccc2c1nc(N[C@@H]1CCCCNC1=O)n1nc(-c3cnn(C(F)F)c3)nc21 [Example 764, 2-[1-(difluoromethyl)-1H-pyrazol-4-yl]-5-{[(3R)-2-oxoazepan-3-yl]amino}[1,2,4]triazolo[1,5-c]quinazoline-7-carbonitrile]	
		3.6e-09 M	10 nM	CC(C)n1cc(-c2nc3c4cccc(C#N)c4nc(N[C@@H]4CCCCNC4=O)n3n2)cn1 [Example 760, 5-{[(3R)-2-oxoazepan-3-yl]amino}-2-[1-(propan-2-yl)-1H-pyrazol-4-yl][1,2,4]triazolo[1,5-c]quinazoline-7-carbonitrile]	
279 nM	4.16e-07 M			COc1ccc(-c2nc3c4cccc(OC5CCC5)c4nc(N[C@@H]4CCCCNC4=O)n3n2)cc1 [Example 998, (3R)-3-{[7-(cyclobutyloxy)-2-(4-methoxyphenyl)[1,2,4]triazolo[1,5-c]quinazolin-5-yl]amino}azepan-2-one]	
		2.96e-08 M	3.63 nM	N#Cc1cccc2nc(N[C@@H]3CCCCNC3=O)n3nc(-c4cccc(F)c4)nc3c12 [Example 249, 2-(3-fluorophenyl)-5-{[(3R)-2-oxoazepan-3-yl]amino}[1,2,4]triazolo[1,5-c]quinazoline-10-carbonitrile]	
		2.9e-07 M	130 nM	CCCCNC(=O)CNc1nc2ccccc2c2nc(-c3ccc(S(C)(=O)=O)cc3)nn12 [Example 438, N-butyl-N^2-{2-[4-(methanesulfonyl)phenyl][1,2,4]triazolo[1,5-c]quinazolin-5-yl}glycinamide]	
298 nM	6.3e-07 M			Cc1c(-c2nc3c4cccc(F)c4nc(N[C@@H]4CNCCNC4=O)n3n2)cnn1C [Example 969, (6R)-6-{[2-(1,5-dimethyl-1H-pyrazol-4-yl)-7-fluoro[1,2,4]triazolo[1,5-c]quinazolin-5-yl]amino}-1,4-diazepan-5-one]	
		> 2e-05 M	15.1 nM	COc1ccc(-c2nc3c4cc(F)ccc4nc(N[C@@H]4CNCCNC4=O)n3n2)cc1 [Example 277, (6R)-6-{[9-fluoro-2-(4-methoxyphenyl)[1,2,4]triazolo[1,5-c]quinazolin-5-yl]amino}-1,4-diazepan-5-one]	
		2.58e-07 M	> 20000 nM	COc1ccc(-c2nc3c4cccc(C(=O)OC(C)C)c4nc(N[C@@H]4CCCCNC4=O)n3n2)cc1 [Example 653, propan-2-yl 2-(4-methoxyphenyl)-5-{[(3R)-2-oxoazepan-3-yl]amino}[1,2,4]triazolo[1,5-c]quinazoline-7-carboxylate]	
		1e-09 M	3.53 nM	COc1ccc(-c2nc3c4ccccc4nc(N[C@@H]4CCCCNC4=O)n3n2)c(F)c1 [Example 631, (3R)-3-{[2-(2-fluoro-4-methoxyphenyl)[1,2,4]triazolo[1,5-c]quinazolin-5-yl]amino}azepan-2-one]	
		3.06e-09 M	2.55 nM	CC(C)n1cc(-c2nc3c4ccccc4nc(N[C@@H]4CCCCNC4=O)n3n2)cn1 [Example 195, (3R)-3-({2-[1-(propan-2-yl)-1H-pyrazol-4-yl][1,2,4]triazolo[1,5-c]quinazolin-5-yl]amino)azepan-2-one]	
		> 5.71e-06 M	271 nM	COc1ccc(-c2nc3c4cccc(OCC(C)(F)F)c4nc(N[C@@H]4CCCCNC4=O)n3n2)cc1 [Example 668, (3R)-3-{[7-(2,2-difluoropropoxy)-2-(4-methoxyphenyl)[1,2,4]triazolo[1,5-c]quinazolin-5-yl]amino}azepan-2-one]	
72.3 nM	4.4e-08 M			C[C@@H](Nc1nc2c(Br)cccc2c2nc(-c3cnn(C)c3)nn12)C(=O)N1C[C@@H]2C[C@H]1CN2C [Example 900]	
		7.2e-09 M	6.63 nM	COc1ccc(-c2nc3c4ccccc4nc(N[C@@H]4CCCCNC4=O)n3n2)cc1C(F)(F)F [Example 722, (3R)-3-({2-[4-methoxy-3-(trifluoromethyl)phenyl][1,2,4]triazolo[1,5-c]quinazolin-5-yl}amino)azepan-2-one]	
		7.95e-07 M	30.6 nM	CS(=O)(=O)c1ccc(-c2nc3c4ccccc4nc(N[C@H]4CCCCNC4=O)n3n2)cc1 [Example 375, (3S)-3-({2-[4-(methanesulfonyl)phenyl][1,2,4]triazolo[1,5-c]quinazolin-5-yl}amino)azepan-2-one]	
		8.86e-09 M	7.35 nM	COc1cccc(-c2nc3c4ccccc4nc(N[C@H](C)C(=O)NC(C)C)n3n2)c1 [Example 105, N^2-[2-(3-methoxyphenyl)[1,2,4]triazolo[1,5-c]quinazolin-5-yl]-N-propan-2-yl-D-alaninamide]	
		6.55e-06 M	756 nM	O=C1NCCNC[C@H]1Nc1nc2cccc(C(F)(F)F)c2c2nc(-c3ccc(F)cc3)nn12 [Example 287, (6R)-6-{[2-(4-fluorophenyl)-10-(trifluoromethyl)[1,2,4]triazolo[1,5-c]quinazolin-5-yl]amino}-1,4-diazepan-5-one]	
12.2 nM	6.04e-09 M			COc1ccc(-c2nc3c4ccccc4nc(N[C@H](C)C(=O)NCCN4CCN(C)CC4)n3n2)cc1 [Example 881, N^2-[2-(4-methoxyphenyl)[1,2,4]triazolo[1,5-c]quinazolin-5-yl]-N-[2-(4-methylpiperazin-1-yl)ethyl]-D-alaninamide]	

SMILES	IC50 (AHR [1]; [3])	IC50 (AHR [2]; firefly luciferase reporter)	IC50 (AHR [2])	IC50 (AHR [1]; [5])	IC50 (AHR [1]; [4])
O=C1NCCCC[C@H]1Nc1nc2ccccc2c2nc(-c3cncc(F)c3)nn12 [Example 479, (3R)-3-{[2-(5-fluoropyridin-3-yl)[1,2,4]triazolo[1,5-c]quinazolin-5-yl]amino}azepan-2-one]			3.53e-08 M		33.2 nM
CS(=N)(=O)c1ccccc1-c1nc2c3ccccc3nc(N[C@@H]3CCCCNC3=O)n2n1 (single isomer, unassigned) [Example 662]			6.86e-08 M		70.4 nM
